Measurements from paper PMC9412362, “Design, Synthesis, and Characterization of Novel Coordination Compounds of Benzimidazole Derivatives with Cadmium” (Pharmaceutics, 2022).
≈ marks a conversion by molar mass, not a printed value. Read-outs that look alike come from different tables or passages of the source.

Tests used:
P. mirabilis ATCC 12453 = assay: MIC, micro-dilution broth method; format: cell-based, Proteus mirabilis
Description: (§1) Samples of complexes (about 20 mg) were digested in a concentrated mixture of 36% HCl (1 mL) and 65% HNO3 (6 mL). The contents of Cd (II) in the solid complexes were determined with an F-AAS spectrometer (Analytik Jena, contraAA 300, Jena, Germany) with a continuous source of light and using an air/acetylene flame (Analytik Jena, contraAA 300). Absorbances were measured at the analytical spectral lines at 228.8 nm for Cd (II). The limit of quantification was 0.004 mg/L for Cd (II). The solid samples were decomposed using an Anton Paar Multiwave 3000 (Graz, Austria) closed-system instrument. Mineralization was carried out for 45 min at 240 °C under a pressure of 60 bar. The contents of carbon, hydrogen, and nitrogen were determined with an instrument from Vario Micro Company Elementar Analysensysteme GmbH (Langenselbold, Germany). FTIR spectra were recorded with an IR Tracer-100 Schimadzu Spectrometer (4000–600 cm^−1 with an accuracy of recording of 1 cm^−1, Kyoto, Japan) using KBr pellets. The thermal analyses were carried out with a Netzsch STA 449 F1 Jupiter thermoanalyzer (Netzsch-Geratebau GmbH, Selb, Germany) coupled with a Netzsch Aeolos Quadro QMS 403 mass spectrometer (Netzsch-Geratebau GmbH, Selb, Germany). The samples were heated up to 1000 °C in corundum crucibles with a heating rate of 10 °C/min in an atmosphere of synthetic air (20% O2, 80% N2). The cytotoxic effects of the compounds were evaluated using glioblastoma (T98G), neuroblastoma (SK-N-AS), and lung adenocarcinoma (A549) cell lines and normal human skin fibroblasts (CCD-1059Sk). T98G and SK-N-AS cells were cultured in high-glucose DMEM and A549 cells were cultured in DMEM/F12, while CCD-1059Sk cells were cultured in MEM. All media were supplemented with 10% (FBS), 100 U/mL of penicillin, and […] of streptomycin (PenStrep). Cells were incubated at 37 °C in a humidified atmosphere of 5% CO2. Stock solutions were prepared by dissolving the compounds in sterile dimethyl sulfoxide (DMSO) to obtain a concentration of 50 mg/mL. The cells were seeded into sterile 96-well plates (Nunc) at a density of 1 × 10^5 cells/mL. After 24 h of incubation, the medium was removed from each well, and then the cells were incubated for the next 24 h with different concentrations of the tested compounds (1–100 µg/mL) in their respective media containing 2% FBS. The cytotoxicity of the compounds was evaluated using an MTT assay, which was based on the conversion of 3-(4,5-dimethylthiazol-2-yl)-2,5-diphenyltetrazolium bromide (MTT) into dark-blue formazan crystals. Briefly, after 24 h of incubation of the cells with varying concentrations of the tested compounds, all culture media were removed from the plates. The cells were washed with PBS, and then 100 µL of medium containing 10% MTT solution (5 mg/mL) was added to each well. After 3 h of incubation, 100 µL (per well) of 10% SDS buffer solution was added to solubilize the formazan crystals. After overnight incubation, the absorbance was measured at 570 nm using a microplate reader (Epoch, BioTek Instruments). Experiments were repeated twice, and the measurements in each experiment were run in triplicate. The viability of the investigated cells was expressed as the percentage of the viability of the untreated cells, and the results were transformed into IC50 values (expressed as mean ± SD). The complexes were screened for antibacterial and antifungal activity by using the micro-dilution broth method with Mueller–Hinton broth for the growth of bacteria or Mueller–Hinton broth with 2% glucose for the growth of fungi. […]

E. coli ATCC 25922 = assay: MIC, micro-dilution broth method; format: cell-based, Escherichia coli
Description: as §1

P. aeruginosa ATCC 9027 = assay: MIC, micro-dilution broth method; format: cell-based, Pseudomonas aeruginosa
Description: as §1

T98G cells = assay: MTT cytotoxicity assay, glioblastoma T98G; format: cell-based, human; settings: MTT assay after 24 h of incubation, read-out: IC50 ± SD, T98G
Description: as §1

SK-N-AS cells = assay: MTT cytotoxicity assay, neuroblastoma SK-N-AS; format: cell-based, human; settings: MTT assay after 24 h of incubation, read-out: IC50 ± SD, SK-N-AS
Description: as §1

C. glabrata ATCC 2091 = assay: MIC, micro-dilution broth method; format: cell-based; settings: Yeasts; micro-dilution broth with 2% glucose
Description: as §1

B. subtilis ATCC 6633 = assay: MIC, micro-dilution broth method; format: cell-based, Bacillus subtilis; settings: Gram-positive bacteria; micro-dilution broth
Description: as §1

[1] = system: S. typhimurium ATCC 14028; assay: MIC, micro-dilution broth method; format: cell-based, Salmonella Typhimurium; settings: Gram-negative bacteria
Description: as §1

[2] = system: C. parapsilosis ATCC 22019; assay: MIC, micro-dilution broth method; format: cell-based, Candida parapsilosis; settings: Yeasts; micro-dilution broth with 2% glucose
Description: as §1

K. pneumoniae ATCC 13883 = assay: MIC, micro-dilution broth method; format: cell-based, Klebsiella pneumoniae
Description: as §1

M. luteus ATCC 10240 = assay: MIC, micro-dilution broth method; format: cell-based, Micrococcus luteus; settings: Gram-positive bacteria; micro-dilution broth
Description: as §1

S. aureus ATCC 25923 = assay: MIC, micro-dilution broth method; format: cell-based, Staphylococcus aureus; settings: Gram-positive bacteria; micro-dilution broth
Description: as §1

[3] = system: S. epidermidis ATCC 12228; assay: MIC, micro-dilution broth method; format: cell-based, Staphylococcus epidermidis; settings: Gram-positive bacteria; micro-dilution broth
Description: as §1

E. faecalis ATCC 29212 = assay: MIC, micro-dilution broth method; format: cell-based, Enterococcus faecalis; settings: Gram-positive bacteria; micro-dilution broth
Description: as §1

B. cereus ATCC 10876 = assay: MIC, micro-dilution broth method; format: cell-based, Bacillus cereus; settings: Gram-positive bacteria; micro-dilution broth
Description: as §1

A549 cells = assay: MTT cytotoxicity assay, lung adenocarcinoma A549; format: cell-based, human; settings: lung carcinoma A549, MTT assay after 24 h of incubation, read-out: IC50 ± SD, A549
Description: as §1

C. albicans ATCC 102231 = assay: MIC, micro-dilution broth method; format: cell-based, Candida albicans; settings: Yeasts; micro-dilution broth with 2% glucose
Description: as §1

CCD-1059Sk cells = assay: MTT cytotoxicity assay, normal human skin fibroblasts CCD-1059Sk; format: cell-based; settings: normal human fibroblasts CCD-1059Sk, MTT assay after 24 h of incubation; read-out: IC50 ± SD, CCD-1059-Sk
Description: as §1

## Brc1cnc2[nH]c(-c3cccnc3)nc2c1.O.O.[Cl][Cd][Cl] [C4, Cd(L4)Cl2∙2H2O]
P. mirabilis ATCC 12453; Gram-negative bacteria
  MIC, P. mirabilis ATCC 12453: 1000 µg/mL
E. coli ATCC 25922; Gram-negative bacteria
  MIC, E. coli ATCC 25922: 500 µg/mL
P. aeruginosa ATCC 9027; Gram-negative bacteria
  MIC, P. aeruginosa ATCC 9027: >1000 µg/mL
T98G cells
  IC50: 42.5 ± 0.96 µM
SK-N-AS cells
  IC50: 25.3 ± 1 µM
C. glabrata ATCC 2091
  MIC, C. glabrata ATCC 2091: 31.3 µg/mL
B. subtilis ATCC 6633
  MIC, B. subtilis ATCC 6633: 7.8 µg/mL
[1]
  MIC, S. typhimurium ATCC 14028: 1000 µg/mL
[2]
  MIC, C. parapsilosis ATCC 22019: 7.8 µg/mL
K. pneumoniae ATCC 13883; Gram-negative bacteria
  MIC, K. pneumoniae ATCC 13883: 1000 µg/mL
M. luteus ATCC 10240
  MIC, M. luteus ATCC 10240: 7.8 µg/mL
S. aureus ATCC 25923
  MIC, S. aureus ATCC 25923: 1000 µg/mL
[3]
  MIC, S. epidermidis ATCC 12228: 250 µg/mL
E. faecalis ATCC 29212
  MIC, E. faecalis ATCC 29212: 250 µg/mL
B. cereus ATCC 10876
  MIC, B. cereus ATCC 10876: 250 µg/mL
A549 cells
  IC50: 37.3 ± 2.1 µM
C. albicans ATCC 102231
  MIC, C. albicans ATCC 102231: 125 µg/mL
CCD-1059Sk cells
  IC50: 27.7 ± 0.9 µM

## COc1cc([C@@H]2c3cc4c(cc3[C@@H](O[C@@H]3O[C@@H]5CO[C@@H](C)O[C@H]5[C@H](O)[C@H]3O)[C@H]3COC(=O)[C@H]23)OCO4)cc(OC)c1O [Etoposide, reference compound]
T98G cells; Homo sapiens
  IC50: > 170 µM
SK-N-AS cells; Homo sapiens, SK-N-AS, 24 h
  IC50: 115 µM
SK-N-AS cells
  IC50: 115 ± 3.5 µM
A549 cells; Homo sapiens
  IC50: > 170 µM
CCD-1059Sk cells
  IC50: > 170 µM

## C[C@@H]1[C@H](O)[C@@H](C)/C=C/C=C/CC/C=C/C=C/C=C/C=C/C(O[C@H]2O[C@H](C)[C@@H](O)[C@H](N)[C@@H]2O)CC2O[C@](O)(CC(O)C(O)CCC(O)CC(O)CC(O)CC(=O)O[C@H]1C)CC(O)C2C(=O)O (stereo partly shown) [Nys, nystatin, reference compound]
C. glabrata ATCC 2091
  MIC, C. glabrata ATCC 2091: 0.48 µg/mL (≈ 0.518 µM)
[2]
  MIC, C. parapsilosis ATCC 22019: 0.24 µg/mL (≈ 0.259 µM)
C. albicans ATCC 102231
  MIC, C. albicans ATCC 102231: 0.24 µg/mL (≈ 0.259 µM)

## O=C(O)c1cn(C2CC2)c2cc(N3CCNCC3)c(F)cc2c1=O [Cip, ciprofloxacin, reference compound]
P. mirabilis ATCC 12453; Proteus mirabilis, ATCC12453, Gram-negative bacteria
  MIC: 0.03 µg/mL (≈ 0.0905 µM)
E. coli ATCC 25922; Escherichia coli, ATCC25922, Gram-negative bacteria
  MIC: 0.015 µg/mL (≈ 0.0453 µM)
P. aeruginosa ATCC 9027; Pseudomonas aeruginosa, ATCC9027, Gram-negative bacteria
  MIC: 0.49 µg/mL (≈ 1.48 µM)
[1]; Salmonella enterica
  MIC: 0.061 µg/mL (≈ 0.184 µM)
K. pneumoniae ATCC 13883; Klebsiella pneumoniae, ATCC13883, Gram-negative bacteria
  MIC: 0.12 µg/mL (≈ 0.362 µM)
